Assay results reported in patent publication US12516038B2, “Inhibitors of antigen presentation by HLA-DR” (Janssen Pharmaceutica NV, priority 2020, dated 2026).

Key:
[1] = biological target: HLA-DRB1*0401 (Homo sapiens (Human), UniProt P01903+P01911, A100K/A169T/DEL228-266/F76Y/I96L/K127E/L162R/M171V/N62H/P40V/Q125Y/R42H/S133A/S149N/S66Y/V115G/V209L/W38E); assay: HLA-DR4 HTRF assay; type: binding; conditions: inhibition of loading of Alexa Fluor 647-labeled Cit-CII peptide onto HLA-DR4 (CLIP cleaved)
Source text: (§1) The screening was made through two sets of HLA-DR/peptide-dependent assays: a peptide-dependent Homogeneous Time Resolved Fluorescence (HTRF) binding assay followed by an HLA-DR dependent, peptide-specific T cell functional assay (HLA-DR4-restricted peptide-specific T cell-based assay hybridoma assay). The HTRF binding assay was designed to measure the ability of the small molecule to inhibit the loading of a fluorescently labeled high-affinity peptide onto HLA-DR peptide binding groove. The peptide-specific T cell functional assay assesses T cell activation resulting from proper peptide presentation onto HLA-DR expressed on the surface of the antigen-presenting cells to the T cell and is used to screen compounds able to inhibit such HLA-DR/peptide-dependent T cell activation.
The HLA-DR4 HTRF assay is based on HTRF technology and designed to measure ability of compounds to prevent loading of high-affinity Alexa Fluor 647-labeled Citrullinated Collagen 111236-1249 peptide (named Cit-CII/AF647, aa1236-1249, LQYM-Cit-ADQAAGGLR; Alexa Fluor 647 dye commercially available from Invitrogen) onto HLA-DRB1*0401. The HTRF assay technology is based on the energy transfer between two fluorophores, a donor and an acceptor, when in close proximity. The HLA-DR4 protein construct was uniquely designed for this assay and has (i) the α and […] subunits fused to human Fc chains and (ii) the invariant chain-associated peptide (CLIP peptide, aa85-101), the universal moderate/low-affinity HLA-DR binder, attached to the beta chain through a HRV3C protease-cleavable linker.
Because of the low stability of peptide free HLA-DR4 heterodimer, the construct was purified and delivered with CLIP peptide attached to the N-terminal of the β chain. The HLA-DR4 heterodimer was pre-treated with 3 μL HRV3C protease (Novagen E71493-3) (˜2 U/μL) per mg of the cleavable protein to cleave CLIP peptide and incubated overnight (>16 hrs) at 4° C. This method yielded at least 80% cleavage and allowed the CLIP peptide to be potentially exchanged with the fluorescently labeled high affinity cit-CII1236-1249 peptide. A batch of […] protein with CLIP cleaved was prepared for multiple experiments and was stable for several months when stored at 4° C.
In this assay, anti-human Fc antibody labeled with Tb-Cryptate probe was used as the donor (commercially available from Cisbio—PAb Anti-human IgG-Tb Cryptate, Cat #61HFCTAB) and high affinity peptide Citrullinated CII (cit-CII) labeled with Alexa 647 fluorophore was utilized as the acceptor. Inhibitors of the exchange of the pre-cleaved CLIP peptide for the high affinity cit-CII1236-1249 peptide onto HLA-DRB1*04:01 caused a decrease in HTRF signal as measured by the ratio of the 665 nm/620 nm emitted signal. Screening compounds were robotically pre-dispensed (150 nL, Hummingbird, DigiLab/CyBio AG) onto black, round bottom, nontreated, 1536-well assay plates (Corning #3939), were incubated with 3 nM HLA-DR4 (with CLIP cleaved) plus 1 nM Human IgG-Tb (anti-Fc-Tb) Antibody for 45 min prior to addition of 40 nM Cit-CII peptide labeled with Alexa-647. The negative control was DMSO plus 1 nM Human IgG-Tb (anti-Fc-Tb) Antibody, incubated for 45 minutes before addition of 40 nM Cit-CII peptide labeled with Alexa-647. The positive control was DMSO plus 3 nM HLA-DR4 (with CLIP cleaved) plus 1 nM Human IgG-Tb (anti-Fc-Tb) Antibody with 40 nM Cit-CII peptide labeled with Alexa-647 added after a 45-minute incubation. Plates were centrifuged at 1000 rpm for 1 minute and then incubated at 37° C., at 90% relative humidity for 90 minutes. After incubation, plates were read on a spectrophotometer, the Pherastar FS (BMG Labtech), in HTRF mode. The HTRF ratio as well as percent inhibition was calculated. Curve fitting and IC50 calculation for dose response data was performed by Microsoft Excel, 3DX (Janssen proprietary software) or Graphpad Prism (Graphpad Software, San Diego, CA). […]

[2] = system: HLA-DR4 restricted mouse T cell hybridoma line (DR4.CII.36.8) with HLA-DRB1*04:01-expressing Boleth cells; assay: HLA-DR4-restricted peptide-specific T cell-based assay (hybridoma assay); conditions: 6 h, inhibition of IL-2 production, CII259-273 peptide presented by Boleth cells
Source text: as §1
HLA-DR4-Restricted Peptide-Specific T Cell-Based Assay (Hybridoma Assay)
The hybridoma assay was used to measure compound inhibition of TL-2 production from an HLA-DR4 restricted mouse T cell hybridoma line (DR4.CII.36.8) that was antigen-specific for collagen II259-273 (CII259-273) peptide when presented with an HLA-DR4 expressing Antigen Presenting Cell (APC) cell line (i.e., Boleth).
To the HLA-DRB1*04:01-expressing B cell line (Boleth cell line from International Histocompatibility Working Group (IHWG), ref #IHW09031) was presented the collagen II 259-273 peptide (CII259-273, GIAGFKGEQGPKGEP) to mouse T cell hybridoma (DR4.CII.36.8 T cell hybridoma; clone 36.8, expressing a CII259-273-specific, HLA-DRB1*04:01-restricted T cell receptor). Upon proper CII259-273 peptide presentation, the T cell hybridoma was activated and thus produced IL-2 cytokine, whose level in the cell culture supernatant was detected using mouse IL-2 AlphaLISA kit (Perkin Elmer, Cat: AL511F).
This assay was performed in a 384-well plate (polypropylene V-bottom Greiner bio-one, ref #784075) by: (i) pre-incubation of 20 μL of 1.25 million/mL Boleth cells (25,000 cells) resuspended in DMEM/1% fetal calf serum (FCS; Gibco, ref #16140-071) with 20 μL of 2.5× final concentration of compound of interest in DMEM/1% serum/0.75% DMSO at 37° C. for 1 hr in the incubator, then (ii) 10 μL of 5 million/mL (50,000 cells) DR4.CII.36.8 T cell hybridoma cells resuspended in DMEM/1% FCS was added and incubated for 6 h at 37° C. in the incubator. Supernatant was then collected and mouse IL-2 detected using AlphaLISA kit (ref #AL511F). Compounds were tested in duplicate, with 8-point titration. Mean±SD of AlphaLISA units at each compound concentration was used for compound IC50 calculation. The negative control for this experiment was run without peptide stimulation and used a DMSO vehicle wherein no compound of interest was added. The positive control was run with peptide stimulation and used a DMSO vehicle wherein no compound of interest was added. Both the negative and positive controls were run in 8 replicates each. Curve fitting and IC50 calculation for dose response data was performed by GraphPad software 6 or higher (GraphPad Software, San Diego, CA). Dose response data was plotted versus the log of compound concentration and IC50 was determined using 4-parameter logistic (4-PL) curve fitting.

Structure (SMILES): NC(=O)c1ccc([C@@H](Oc2ccc3c(c2)OCCC3=O)c2ccncc2N)cc1 (single isomer, unassigned) [Example 27a, (*R)-4-((3-aminopyridin-4-yl)((4-oxochroman-7-yl)oxy)methyl)benzamide]
- IC50 [1]: 7300 nM
- IC50 ([2]; Mus musculus, T-cell): 13 µM

Structure (SMILES): C[C@H]1COc2cc(O[C@H](c3ccncc3)c3ccc(C(N)=O)cc3)ccc2C1=O (single isomer, unassigned) [Example 44d, 4-((*S)—(((*S)-3-Methyl-4-oxochroman-7-yl)oxy)(pyridin-4-yl)methyl)benzamide]
- IC50 [1]: 850 nM
- IC50 ([2]; Mus musculus, T-cell): > 15 µM

Structure (SMILES): CC(C)c1c(O[C@H](c2ccc(C(N)=O)cc2)c2cccc(C#N)c2)ccc2c1OCCC2=O (single isomer, unassigned) [Example 107a, (*R)-4-((3-cyanophenyl)((8-isopropyl-4-oxochroman-7-yl)oxy)methyl)benzamide]
- IC50 [1]: 940 nM
- IC50 ([2]; Mus musculus, T-cell): 10 µM

Structure (SMILES): C[C@@H]1CC(=O)c2ccc(O[C@H](c3ccncc3)c3ccc(C(N)=O)cc3)cc2O1 (single isomer, unassigned) [Example 39a, 4-((*S)—(((*R)-2-Methyl-4-oxochroman-7-yl)oxy)(pyridin-4-yl)methyl)benzamide]
- IC50 [1]: 1100 nM
- IC50 ([2]; Mus musculus, T-cell): 14 µM

Structure (SMILES): Cc1c(O[C@@H](c2ccc(C(N)=O)cc2)c2ccc(S(C)(=O)=O)cc2)c(F)cc2c1OCCC2=O (single isomer, unassigned) [Example 93b, (*S)-4-(((6-fluoro-8-methyl-4-oxochroman-7-yl)oxy)(4-(methylsulfonyl)phenyl)methyl)benzamide]
- IC50 [1]: 280 nM
- IC50 ([2]; Mus musculus, T-cell): 14 µM

Structure (SMILES): Cc1c(OC(c2ccncc2)c2ccc(C(N)=O)cc2)ccc2c1OC(C)(C)CC2=O (racemic) [Example 113, (R,S)-4-(pyridin-4-yl((2,2,8-trimethyl-4-oxochroman-7-yl)oxy)methyl)benzamide]
- IC50 [1]: 820 nM
- IC50 ([2]; Mus musculus, T-cell): 1 µM

Structure (SMILES): Cc1cc([C@H](Oc2ccc3c(c2)OCCC3=O)c2ccncc2)ccc1C(N)=O (single isomer, unassigned) [Example 35b, (*S)-2-methyl-4-(((4-oxochroman-7-yl)oxy)(pyridin-4-yl)methyl)benzamide]
- IC50 [1]: 830 nM
- IC50 ([2]; Mus musculus, T-cell): 5.2 µM

Structure (SMILES): Cc1cc([C@@H](Oc2cc3c(cc2F)C(=O)CCO3)c2ccc(C(N)=O)cc2)cc(C)n1 (single isomer, unassigned) [Example 109b, (*S)-4-((2,6-dimethylpyridin-4-yl)((6-fluoro-4-oxochroman-7-yl)oxy)methyl)benzamide]
- IC50 [1]: 230 nM
- IC50 [2]: 12 µM

Structure (SMILES): Cc1c(O[C@H](c2ccncc2)c2ccc(C(N)=O)c(F)c2)c(F)cc2c1OCCC2=O (single isomer, unassigned) [Example 95a, (*R)-2-fluoro-4-(((6-fluoro-8-methyl-4-oxochroman-7-yl)oxy)(pyridin-4-yl)methyl)benzamide]
- IC50 [1]: 220 nM
- IC50 ([2]; Mus musculus, T-cell): 0.23 µM

Structure (SMILES): Cc1cc([C@@H](Oc2ccc3c(c2C(C)C)OCCC3=O)c2ccc(C(N)=O)cc2)cc(C)n1 (single isomer, unassigned) [Example 106b, (*S)-4-((2,6-dimethylpyridin-4-yl)((8-isopropyl-4-oxochroman-7-yl)oxy)methyl)benzamide]
- IC50 [1]: 740 nM
- IC50 ([2]; Mus musculus, T-cell): 0.37 µM

Structure (SMILES): Cc1cc([C@@H](Oc2ccc3c(c2C)OC(C)(C)CC3=O)c2ccc(C(N)=O)cc2)cc(C)n1 (single isomer, unassigned) [Example 112b, (*S)-4-((2,6-dimethylpyridin-4-yl)((2,2,8-trimethyl-4-oxochroman-7-yl)oxy)methyl)benzamide]
- IC50 [1]: 600 nM
- IC50 ([2]; Mus musculus, T-cell): 4 µM

Structure (SMILES): Cc1c(O[C@H]2CCCc3cc(C(N)=O)ccc32)ccc2c1OCCC2=O (single isomer, unassigned) [Example 123b, (*S)-5-((8-methyl-4-oxochroman-7-yl)oxy)-5,6,7,8-tetrahydronaphthalene-2-carboxamide]
- IC50 [1]: 570 nM
- IC50 ([2]; Mus musculus, T-cell): 6.3 µM

Structure (SMILES): Cc1c(O[C@@H]2CCCc3cc(C#N)ccc32)ccc2c1OCCC2=O (single isomer, unassigned) [Example 122a, (*R)-5-((8-methyl-4-oxochroman-7-yl)oxy)-5,6,7,8-tetrahydronaphthalene-2-carbonitrile]
- IC50 [1]: 540 nM
- IC50 ([2]; Mus musculus, T-cell): 6.3 µM

Structure (SMILES): Cc1c(O[C@@H](c2ccc(C(N)=O)cc2)c2ccccc2F)ccc2c1OCCC2=O (single isomer, unassigned) [Example 68b, (*S)-4-((2-Fluorophenyl)((8-methyl-4-oxochroman-7-yl)oxy)methyl)benzamide]
- IC50 [1]: 5400 nM
- IC50 ([2]; Mus musculus, T-cell): > 15 µM

Structure (SMILES): Cc1c(O[C@@H](c2ccc(C(N)=O)cc2)c2cccc(F)c2)ccc2c1OCCC2=O (single isomer, unassigned) [Example 67b, (*S)-4-((3-Fluorophenyl)((8-methyl-4-oxochroman-7-yl)oxy)methyl)benzamide]
- IC50 [1]: 2200 nM
- IC50 ([2]; Mus musculus, T-cell): > 15 µM

Structure (SMILES): Cc1cc([C@@H](Oc2ccc3c(c2C#N)OCCC3=O)c2ccc(C(N)=O)cc2)cc(C)n1 (single isomer, unassigned) [Example 110b, (*S)-4-(((8-cyano-4-oxochroman-7-yl)oxy)(2,6-dimethylpyridin-4-yl)methyl)benzamide]
- IC50 [1]: 610 nM
- IC50 ([2]; Mus musculus, T-cell): 0.79 µM

Structure (SMILES): Cc1cnccc1[C@@H](Oc1ccc2c(c1)OCCC2=O)c1ccc(C(N)=O)cc1 (single isomer, unassigned) [Example 21b, (*S)-4-((3-Methylpyridin-4-yl)((4-oxochroman-7-yl)oxy)methyl)benzamide]
- IC50 [1]: 640 nM
- IC50 ([2]; Mus musculus, T-cell): 5.4 µM
